Laboratory results taken from ChEMBL document CHEMBL1201862, “PubChem BioAssay data set” (2004).
Activity calls are given as the source filed them.

How the values were obtained:
[1] = ATP-based viability loss in HEK293T cells – cell-based, CellTiter-Glo luminescence, cherry-picked samples, set 4, cytotoxicity control, dose response (AID 743441); format: functional; conditions: HEK293
[2] = target: T1, Scavenger receptor class B member 1 (Mus musculus, UniProt Q61009); experiment: mouse SR-BI DiI-HDL transfer blockers – ldlA[mSR-BI] CHO cells, fluorescence plate reader, dry powder, set 9, dose response (AID 623880); format: functional, cell-based
T1 sequence (Q61009 whole entry): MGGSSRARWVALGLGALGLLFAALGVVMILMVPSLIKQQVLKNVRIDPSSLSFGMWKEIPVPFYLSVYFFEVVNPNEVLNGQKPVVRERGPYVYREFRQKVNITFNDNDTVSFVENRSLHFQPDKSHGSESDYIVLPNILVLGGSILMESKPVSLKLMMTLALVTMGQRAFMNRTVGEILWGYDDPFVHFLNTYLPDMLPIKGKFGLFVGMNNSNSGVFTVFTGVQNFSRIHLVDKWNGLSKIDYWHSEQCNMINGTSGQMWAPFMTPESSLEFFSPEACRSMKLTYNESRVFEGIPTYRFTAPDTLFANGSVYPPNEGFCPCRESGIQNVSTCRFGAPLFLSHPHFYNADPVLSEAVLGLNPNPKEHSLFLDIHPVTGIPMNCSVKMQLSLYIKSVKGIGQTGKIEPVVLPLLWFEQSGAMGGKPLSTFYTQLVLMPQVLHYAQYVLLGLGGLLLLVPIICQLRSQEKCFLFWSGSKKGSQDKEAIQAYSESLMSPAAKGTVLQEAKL

[3] = target: T1, Scavenger receptor class B member 1; experiment: blockers of DiI-HDL lipid transfer via SR-BI – cell-based, ldlA[mSR-BI] CHO, DiI fluorescence, dry powder, set 10, dose response (AID 624029); format: functional
X-box-binding protein 1 = target: T2, X-box-binding protein 1 (Homo sapiens, UniProt P17861); format: functional, Cricetulus griseus;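 further: confirmatory dose-response counter-screen serving a CHOP assay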
T2 sequence (P17861 whole entry): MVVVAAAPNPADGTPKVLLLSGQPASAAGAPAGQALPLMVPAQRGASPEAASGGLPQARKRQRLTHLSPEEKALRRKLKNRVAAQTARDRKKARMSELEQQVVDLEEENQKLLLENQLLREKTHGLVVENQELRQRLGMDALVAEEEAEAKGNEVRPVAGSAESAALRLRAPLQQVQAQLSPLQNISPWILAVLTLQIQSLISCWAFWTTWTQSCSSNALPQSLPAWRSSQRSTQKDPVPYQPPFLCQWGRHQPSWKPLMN

[4] = target: T3, Polyadenylate-binding protein 1 (Homo sapiens, UniProt P11940); experiment: MLLE binding blockers, Cy5 peptide tracer – biochemical, fluorescence polarization, Cy5-PAM2 peptide, secondary, miRNA deadenylation inhibitor project, dose response (AID 602260); format: functional; conditions: read-out: IC50_Mean
T3 sequence (P11940 whole entry, the tested form may be a part): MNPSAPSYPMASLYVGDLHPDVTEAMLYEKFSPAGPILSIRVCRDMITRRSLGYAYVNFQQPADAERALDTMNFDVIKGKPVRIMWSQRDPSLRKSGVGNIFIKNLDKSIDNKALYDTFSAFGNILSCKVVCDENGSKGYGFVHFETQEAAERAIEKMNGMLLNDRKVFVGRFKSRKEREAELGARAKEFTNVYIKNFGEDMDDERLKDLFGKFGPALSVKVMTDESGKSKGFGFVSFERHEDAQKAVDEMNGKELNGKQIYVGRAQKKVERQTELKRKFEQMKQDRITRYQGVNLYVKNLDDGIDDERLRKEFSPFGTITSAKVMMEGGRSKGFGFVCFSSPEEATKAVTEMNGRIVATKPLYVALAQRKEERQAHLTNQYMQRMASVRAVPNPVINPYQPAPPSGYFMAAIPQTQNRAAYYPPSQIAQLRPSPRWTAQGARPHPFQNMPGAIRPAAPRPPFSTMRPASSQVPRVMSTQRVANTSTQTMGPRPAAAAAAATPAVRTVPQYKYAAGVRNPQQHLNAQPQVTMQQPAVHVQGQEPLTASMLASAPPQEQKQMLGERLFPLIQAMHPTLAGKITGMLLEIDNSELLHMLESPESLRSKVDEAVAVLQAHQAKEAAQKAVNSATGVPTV

[5] = target: T3, Polyadenylate-binding protein 1; experiment: MLLE domain peptide-binding blockers, IC50 – biochemical, fluorescence polarization, FITC-PAM2 peptide, dose response (AID 602259); format: functional; conditions: read-out: IC50_Mean
[6] = target: SWI/SNF-related matrix-associated actin-dependent regulator of chromatin subfamily A member 2 (Homo sapiens, UniProt P51531); experiment: Luminescence-based cell-based high throughput dose response assay to identify activators of the function of SWI/SNF related, matrix associated, actin dependent regulator of chromatin, subfamily a, member 2 (SMARCA2, BRM).; format: functional
Sequence of SWI/SNF-related matrix-associated actin-dependent regulator of chromatin subfamily A member 2 (P51531 whole entry): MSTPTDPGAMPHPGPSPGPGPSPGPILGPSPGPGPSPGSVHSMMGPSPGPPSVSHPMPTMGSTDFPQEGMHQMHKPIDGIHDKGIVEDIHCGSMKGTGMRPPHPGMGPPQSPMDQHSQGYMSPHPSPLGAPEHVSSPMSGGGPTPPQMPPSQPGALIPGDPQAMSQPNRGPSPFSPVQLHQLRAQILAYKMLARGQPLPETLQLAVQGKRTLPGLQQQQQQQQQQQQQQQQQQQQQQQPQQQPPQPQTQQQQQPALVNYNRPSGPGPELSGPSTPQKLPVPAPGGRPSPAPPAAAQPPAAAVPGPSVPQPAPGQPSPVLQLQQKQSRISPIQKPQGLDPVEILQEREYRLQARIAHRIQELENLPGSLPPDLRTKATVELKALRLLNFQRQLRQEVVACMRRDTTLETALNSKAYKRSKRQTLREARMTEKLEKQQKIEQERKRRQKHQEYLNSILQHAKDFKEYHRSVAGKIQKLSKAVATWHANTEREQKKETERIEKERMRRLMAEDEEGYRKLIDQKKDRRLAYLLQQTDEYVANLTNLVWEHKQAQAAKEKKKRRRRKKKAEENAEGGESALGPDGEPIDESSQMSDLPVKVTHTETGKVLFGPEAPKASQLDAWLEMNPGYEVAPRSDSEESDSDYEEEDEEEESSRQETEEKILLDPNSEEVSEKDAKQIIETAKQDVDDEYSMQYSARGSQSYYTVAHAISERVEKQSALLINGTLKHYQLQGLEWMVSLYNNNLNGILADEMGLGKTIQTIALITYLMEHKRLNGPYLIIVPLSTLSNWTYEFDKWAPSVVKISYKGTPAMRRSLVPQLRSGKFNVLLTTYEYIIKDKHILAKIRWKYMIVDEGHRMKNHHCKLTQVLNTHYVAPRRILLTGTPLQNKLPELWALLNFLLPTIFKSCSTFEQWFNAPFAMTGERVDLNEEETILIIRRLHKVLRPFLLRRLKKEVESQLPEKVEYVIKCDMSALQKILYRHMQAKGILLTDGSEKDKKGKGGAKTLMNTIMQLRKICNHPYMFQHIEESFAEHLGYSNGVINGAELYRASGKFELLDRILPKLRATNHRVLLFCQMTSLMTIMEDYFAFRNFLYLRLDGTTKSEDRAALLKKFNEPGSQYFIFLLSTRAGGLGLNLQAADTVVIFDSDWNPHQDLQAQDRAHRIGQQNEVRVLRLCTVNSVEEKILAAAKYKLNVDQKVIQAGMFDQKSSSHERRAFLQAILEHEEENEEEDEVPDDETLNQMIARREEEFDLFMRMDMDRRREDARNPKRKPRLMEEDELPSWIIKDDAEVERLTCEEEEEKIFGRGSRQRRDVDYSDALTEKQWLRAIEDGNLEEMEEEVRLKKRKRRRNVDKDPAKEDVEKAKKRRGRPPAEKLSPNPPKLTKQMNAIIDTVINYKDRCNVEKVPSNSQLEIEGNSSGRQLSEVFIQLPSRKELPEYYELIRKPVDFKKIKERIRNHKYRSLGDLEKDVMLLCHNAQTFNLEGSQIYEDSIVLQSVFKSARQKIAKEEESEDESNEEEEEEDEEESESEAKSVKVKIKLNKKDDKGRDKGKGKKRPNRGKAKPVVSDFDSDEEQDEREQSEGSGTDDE

[7] = Counterscreen for activators of the function of SWI/SNF related, matrix associated, actin dependent regulator of chromatin, subfamily a, member 2 (SMARCA2, BRM): Luminescence-based cell-based high throughput dose response assay to identify non-selective compounds using the VP16 reporter assay.; format: functional

CCOc1ccccc1NC(=O)c1ccc2ccccc2c1
AC50 [1]: > 52 µM (inactive)

O=C(O)CC(C(=O)Nc1cccc(C(F)(F)F)c1)C1CCCO1 (stereo not drawn)
AC50 [2]: 45.4 µM (active) | AC50 [3]: 34.3 µM (active)

COc1ccc2c3c(cccc13)C(=O)N(O)C2=O
Absolute IC50 (XBP1) (X-box-binding protein 1): 10 µM | IC50 [4]: > 66 µM (inactive) | IC50 [5]: 35.2 µM (inactive) | EC50 [6]: 26.4 µM (inactive) | EC50 [7]: > 91.2 µM (inactive)
